Experimental findings from the NIST ThermoML archive (doi:10.1016/j.jct.2014.04.014) are described below.

Numbers after ± are expanded uncertainties.

A short description of this series: wn = mass fraction of the nth substance listed. The conditions noted are these: 273.15 K, 102.5 kPa, Liquid; for viscosity: Capillary tube (Ostwald / Ubbelohde) method; for mass density: Pycnometric method.

As a reminder, the viscosity is the resistance of a fluid to flow. As usually defined, the mass density is mass per unit of volume. Regarding `[Cl-].[Na+]` [sodium chloride] + O, for the setting “w1 = 0.2625”, the viscosity worked out at 2.16 ± 0.05 mPa·s and the mass density is given as 1201 ± 1 kg/m3.

Consider `[Cl-].[Cl-].[Zn+2]` [zinc chloride] + O, for which, where the note is “w1 = 0.666”, the viscosity was found to be 135.4 ± 4.5 mPa·s and the mass density amounted to 1943 ± 3 kg/m3.

In the case of `O=[PH2][O-].O=[PH2][O-].[Zn+2]` [zinc(II) phosphinate] + O, for the setting “w1 = 0.1379”, the viscosity is 2.95 ± 0.06 mPa·s and the mass density worked out at 1069 ± 1 kg/m3.

For `O=[PH2][O-].[Na+]` [sodium phosphinate] + O, for the setting “w1 = 0.478”, the viscosity is given as 73.88 ± 1.9 mPa·s and the mass density came out at 1384 ± 1 kg/m3.
